In the supplement of paper PMC10307832 one finds relative viability data, which are given here for five molecules.

One assay deals with NCI-H727. In words: relative viability (nuclei count vs DMSO), 5 days (fraction); higher = more cells survive. Particulars: first compound 0.08 µM. A digest of the protocol: (§1)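 Lung cancer cell lines in 1536-well plates got either a single drug or a fixed anchor-drug dose together with five library-drug doses (not always all listed) in √10 steps, by pin tool, on the day after seeding. Nuclei were counted after 5 days, and relative viability is the treated-to-vehicle ratio of nuclei counts. Values are medians of duplicate plates.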
For `CCCCCCCCCCCC1=C(O)C(=O)C=C(O)C1=O` [Embelin] + COc1cccc2cc(-c3nc([C@H]4CC[C@H](C(=O)O)CC4)n4ncnc(N)c34)[nH]c12 [OSI-027] (partner 0.5 µM), the relative viability amounted to 0.659.

The assay is the same for the next values; noted with them: first compound 0.8 µM.
`CCCCCCCCCCCC1=C(O)C(=O)C=C(O)C1=O` [Embelin] + N=C(N)NC(=N)NCCc1ccccc1 [Phenformin] (partner 250 µM): the relative viability came out at 0.597.

`CCCCCCCCCCCC1=C(O)C(=O)C=C(O)C1=O` [Embelin] + CCNC(=O)c1noc(-c2cc(C(C)C)c(O)cc2O)c1-c1ccc(CN2CCOCC2)cc1 [Luminespib] (partner 0.01 µM): the relative viability amounted to 0.417.

For the molecule `CCCCCCCCCCCC1=C(O)C(=O)C=C(O)C1=O` [Embelin] + Cc1nc(Nc2ncc(C(=O)Nc3c(C)cccc3Cl)s2)cc(N2CCN(CCO)CC2)n1 [Dasatinib] (partner 0.075 µM), the relative viability worked out at 0.411.

In turn, `CCCCCCCCCCCC1=C(O)C(=O)C=C(O)C1=O` [Embelin] + COc1cccc2cc(-c3nc([C@H]4CC[C@H](C(=O)O)CC4)n4ncnc(N)c34)[nH]c12 [OSI-027] (partner 0.5 µM) displayed a relative viability of 0.79.

The same assay, now with this note: first compound 2.53 µM.
Turning to `CCCCCCCCCCCC1=C(O)C(=O)C=C(O)C1=O` [Embelin] + N=C(N)NC(=N)NCCc1ccccc1 [Phenformin] (partner 250 µM), the relative viability is 0.513.

On to `CCCCCCCCCCCC1=C(O)C(=O)C=C(O)C1=O` [Embelin] + CCNC(=O)c1noc(-c2cc(C(C)C)c(O)cc2O)c1-c1ccc(CN2CCOCC2)cc1 [Luminespib] (partner 0.01 µM), for which the relative viability was 0.304.

On to `CCCCCCCCCCCC1=C(O)C(=O)C=C(O)C1=O` [Embelin] + Cc1nc(Nc2ncc(C(=O)Nc3c(C)cccc3Cl)s2)cc(N2CCN(CCO)CC2)n1 [Dasatinib] (partner 0.075 µM), for which the relative viability worked out at 0.492.

For the molecule `CCCCCCCCCCCC1=C(O)C(=O)C=C(O)C1=O` [Embelin] + COc1cccc2cc(-c3nc([C@H]4CC[C@H](C(=O)O)CC4)n4ncnc(N)c34)[nH]c12 [OSI-027] (partner 0.5 µM), the relative viability came to 0.494.

The same assay, now with this note: first compound 8 µM.
In turn, `CCCCCCCCCCCC1=C(O)C(=O)C=C(O)C1=O` [Embelin] + N=C(N)NC(=N)NCCc1ccccc1 [Phenformin] (partner 250 µM) returned a relative viability of 0.5.

In turn, `CCCCCCCCCCCC1=C(O)C(=O)C=C(O)C1=O` [Embelin] + CCNC(=O)c1noc(-c2cc(C(C)C)c(O)cc2O)c1-c1ccc(CN2CCOCC2)cc1 [Luminespib] (partner 0.01 µM) had a relative viability of 0.386.

`CCCCCCCCCCCC1=C(O)C(=O)C=C(O)C1=O` [Embelin] + Cc1nc(Nc2ncc(C(=O)Nc3c(C)cccc3Cl)s2)cc(N2CCN(CCO)CC2)n1 [Dasatinib] (partner 0.075 µM) displayed a relative viability of 0.375.

In the case of `CCCCCCCCCCCC1=C(O)C(=O)C=C(O)C1=O` [Embelin] + COc1cccc2cc(-c3nc([C@H]4CC[C@H](C(=O)O)CC4)n4ncnc(N)c34)[nH]c12 [OSI-027] (partner 0.5 µM), the relative viability is 0.709.

For another assay, the system named is PC-14. Described as above. Particulars: first compound 0.08 µM. A digest of the protocol: as §1
`CCCCCCCCCCCC1=C(O)C(=O)C=C(O)C1=O` [Embelin] + N=C(N)NC(=N)NCCc1ccccc1 [Phenformin] (partner 250 µM) displayed a relative viability of 0.604.

`CCCCCCCCCCCC1=C(O)C(=O)C=C(O)C1=O` [Embelin] + CCNC(=O)c1noc(-c2cc(C(C)C)c(O)cc2O)c1-c1ccc(CN2CCOCC2)cc1 [Luminespib] (partner 0.01 µM) yielded a relative viability of 0.203.

`CCCCCCCCCCCC1=C(O)C(=O)C=C(O)C1=O` [Embelin] + Cc1nc(Nc2ncc(C(=O)Nc3c(C)cccc3Cl)s2)cc(N2CCN(CCO)CC2)n1 [Dasatinib] (partner 0.075 µM): the relative viability turned out to be 0.257.

`CCCCCCCCCCCC1=C(O)C(=O)C=C(O)C1=O` [Embelin] + COc1cccc2cc(-c3nc([C@H]4CC[C@H](C(=O)O)CC4)n4ncnc(N)c34)[nH]c12 [OSI-027] (partner 0.5 µM): the relative viability turned out to be 0.81.

`CCCCCCCCCCCC1=C(O)C(=O)C=C(O)C1=O` [Embelin] + Nc1nc2[nH]cc(CCc3ccc(C(=O)N[C@@H](CCC(=O)O)C(=O)O)cc3)c2c(=O)[nH]1 [Pemetrexed] (partner 0.2 µM) yielded a relative viability of 0.158.

Still in this assay, the particulars now being: first compound 0.8 µM.
On to `CCCCCCCCCCCC1=C(O)C(=O)C=C(O)C1=O` [Embelin] + N=C(N)NC(=N)NCCc1ccccc1 [Phenformin] (partner 250 µM), for which the relative viability was found to be 0.988.

The molecule `CCCCCCCCCCCC1=C(O)C(=O)C=C(O)C1=O` [Embelin] + CCNC(=O)c1noc(-c2cc(C(C)C)c(O)cc2O)c1-c1ccc(CN2CCOCC2)cc1 [Luminespib] (partner 0.01 µM) had a relative viability of 0.235.

Take `CCCCCCCCCCCC1=C(O)C(=O)C=C(O)C1=O` [Embelin] + Cc1nc(Nc2ncc(C(=O)Nc3c(C)cccc3Cl)s2)cc(N2CCN(CCO)CC2)n1 [Dasatinib] (partner 0.075 µM): the relative viability is 0.396.

The molecule `CCCCCCCCCCCC1=C(O)C(=O)C=C(O)C1=O` [Embelin] + COc1cccc2cc(-c3nc([C@H]4CC[C@H](C(=O)O)CC4)n4ncnc(N)c34)[nH]c12 [OSI-027] (partner 0.5 µM) came in with a relative viability of 1.13.

In turn, `CCCCCCCCCCCC1=C(O)C(=O)C=C(O)C1=O` [Embelin] + Nc1nc2[nH]cc(CCc3ccc(C(=O)N[C@@H](CCC(=O)O)C(=O)O)cc3)c2c(=O)[nH]1 [Pemetrexed] (partner 0.2 µM) displayed a relative viability of 0.126.

The same assay, now with this note: first compound 2.53 µM.
In turn, `CCCCCCCCCCCC1=C(O)C(=O)C=C(O)C1=O` [Embelin] + N=C(N)NC(=N)NCCc1ccccc1 [Phenformin] (partner 250 µM) registered a relative viability of 0.465.

In turn, `CCCCCCCCCCCC1=C(O)C(=O)C=C(O)C1=O` [Embelin] + CCNC(=O)c1noc(-c2cc(C(C)C)c(O)cc2O)c1-c1ccc(CN2CCOCC2)cc1 [Luminespib] (partner 0.01 µM) yielded a relative viability of 0.211.

`CCCCCCCCCCCC1=C(O)C(=O)C=C(O)C1=O` [Embelin] + Cc1nc(Nc2ncc(C(=O)Nc3c(C)cccc3Cl)s2)cc(N2CCN(CCO)CC2)n1 [Dasatinib] (partner 0.075 µM) registered a relative viability of 0.246.

For `CCCCCCCCCCCC1=C(O)C(=O)C=C(O)C1=O` [Embelin] + COc1cccc2cc(-c3nc([C@H]4CC[C@H](C(=O)O)CC4)n4ncnc(N)c34)[nH]c12 [OSI-027] (partner 0.5 µM), the relative viability was determined as 1.24.

For `CCCCCCCCCCCC1=C(O)C(=O)C=C(O)C1=O` [Embelin] + Nc1nc2[nH]cc(CCc3ccc(C(=O)N[C@@H](CCC(=O)O)C(=O)O)cc3)c2c(=O)[nH]1 [Pemetrexed] (partner 0.2 µM), the relative viability is 0.134.

The assay is the same for the next values; noted with them: first compound 8 µM.
Consider `CCCCCCCCCCCC1=C(O)C(=O)C=C(O)C1=O` [Embelin] + N=C(N)NC(=N)NCCc1ccccc1 [Phenformin] (partner 250 µM), for which the relative viability turned out to be 0.393.

Regarding `CCCCCCCCCCCC1=C(O)C(=O)C=C(O)C1=O` [Embelin] + CCNC(=O)c1noc(-c2cc(C(C)C)c(O)cc2O)c1-c1ccc(CN2CCOCC2)cc1 [Luminespib] (partner 0.01 µM), the relative viability was 0.167.

As to `CCCCCCCCCCCC1=C(O)C(=O)C=C(O)C1=O` [Embelin] + Cc1nc(Nc2ncc(C(=O)Nc3c(C)cccc3Cl)s2)cc(N2CCN(CCO)CC2)n1 [Dasatinib] (partner 0.075 µM), the relative viability turned out to be 0.315.
